Laboratory results as given in article PMC8191784 (2021).

Assays:
[1] = tested on: wild-type add aptamer, vector P2-P3 (L2-L3) (RNA, riboswitch, 5-aminoallyl-U at the two dye sites (underlined positions not given)) GCGCGAGCGUUGUAUAAUCCUAAUGAUAUGGUUUGGGAGUUUCUACCAAGAGCCUUAAACUCUUGAUUACAACGCUCGCGC; assay: smFRET
[2] = tested on: L2 mutant (U28A, A29U, G31C, G32C), vector P2-P3 (L2-L3) (RNA, riboswitch, 5-aminoallyl-U at the two dye sites (underlined positions not given)) GCGCGAGCGUUGUAUAAUCCUAAUGAAUUCCUUUGGGAGUUUCUACCAAGAGCCUUAAACUCUUGAUUACAACGCUCGCGC; assay: smFRET; details: 10 mM Tris-HCl pH 8.0
[3] = tested on: L3 mutant, vector P2-P3 (L2-L3) (RNA, riboswitch, 5-aminoallyl-U at the two dye sites (underlined positions not given)) GCGCGAGCGUUGUAUAAUCCUAAUGAUAUGGUUUGGGAGUUUCUACCAAGAGGGUAUAACUCUUGAUUACAACGCUCGCGC; assay: smFRET; details: Na+, Mg2+ (see Figure S3); 10 mM Tris-HCl pH 8.0
[4] = tested on: L2 mutant, vector P1-P3 (RNA, riboswitch, 5-aminoallyl-U at the two dye sites (underlined positions not given)) GCGCGAGCGUUGUAUAAUCCUAAUGAAUUCCUUUGGGAGUUUCUACCAAGAGCCUUAAACUCUUGAUUACAACGCUCGCGC; assay: smFRET; details: 10 mM NaCl, 10 mM MgCl2; 10 mM Tris-HCl pH 8.0; 1 mM DAP
[5] = tested on: wild-type add aptamer, vector P1-P2 (RNA, riboswitch, 5-aminoallyl-U at the two dye sites (underlined positions not given)) GCGCGAGCGUUGUAUAAUCCUAAUGAUAUGGUUUGGGAGUUUCUACCAAGAGCCUUAAACUCUUGAUUACAAUGCUCGCGC; assay: smFRET; details: 10 mM NaCl, 10 mM MgCl2; 10 mM Tris-HCl pH 8.0; 1 mM DAP
[6] = tested on: L2 mutant, vector P1-P2 (RNA, riboswitch, 5-aminoallyl-U at the two dye sites (underlined positions not given)) GCGCGAGCGUUGUAUAAUCCUAAUGAAUUCCUUUGGGAGUUUCUACCAAGAGCCUUAAACUCUUGAUUACAAUGCUCGCGC; assay: smFRET; details: 10 mM NaCl, 10 mM MgCl2; 10 mM Tris-HCl pH 8.0; 1 mM DAP
[7] = tested on: wild-type add aptamer, vector J2/3-P1 (core-P1) (RNA, riboswitch, 5-aminoallyl-U at residue 42 (aptamer numbering) and at a P1 site (position not visible)) GCGCGAGCGUUGUAUAAUCCUAAUGAUAUGGUUUGGGAGUUUCUACCAAGAGCCUUAAACUCUUGAUUACAACGCUCGCGC; assay: smFRET; details: 10 mM NaCl, 10 mM MgCl2; 10 mM Tris-HCl pH 8.0; 1 mM DAP
[8] = tested on: L2 mutant, vector J2/3-P1 (core-P1) (RNA, riboswitch, 5-aminoallyl-U at residue 42 (aptamer numbering) and at a P1 site (position not visible)) GCGCGAGCGUUGUAUAAUCCUAAUGAAUUCCUUUGGGAGUUUCUACCAAGAGCCUUAAACUCUUGAUUACAACGCUCGCGC; assay: smFRET; details: 10 mM NaCl, 10 mM MgCl2; 10 mM Tris-HCl pH 8.0; 1 mM DAP
[9] = tested on: wild-type add aptamer, SHAPE transcript (RNA, riboswitch) GCGCUUCAUAUAAUCCUAAUGAUAUGGUUUGGGAGUUUCUACCAAGAGCCUUAAACUCUUGAUUAUGAAGUAAUUUAUCGUCACGGUGCAUCUACCAUC; assay: SHAPE (NMIA) probing; details: NaCl, 0-10 mM MgCl2; K-HEPES pH 8.0, 37 °C; 2 mM DAP
[10] = tested on: L2 mutant aptamer, SHAPE transcript (RNA, riboswitch) GCGCUUCAUAUAAUCCUAAUGAAUUCCUUUGGGAGUUUCUACCAAGAGCCUUAAACUCUUGAUUAUGAAGUAAUUUAUCGUCACGGUGCAUCUACCAUC; assay: SHAPE (NMIA) probing; details: NaCl, 0-10 mM MgCl2; K-HEPES pH 8.0, 37 °C; 2 mM DAP

Row | Structure (SMILES) | binding ([1]; 10 mM NaCl, 10 mM MgCl2, 10 mM Tris-HCl pH 8.0, 1 mM DAP, FRET same as Mg2+ alone) | binding ([2]; 10 mM Na+, no Mg2+, aptamer stays in U state without Mg2+) | binding ([2]; 10 mM NaCl, 10 mM MgCl2, 1 mM DAP) | binding [3] | binding [4] | binding [5] | binding [6] | binding [7] | binding [8] | binding [9] | binding [10] | binding ([1]; 200 mM NaCl, 3 M urea, adenine titration) | binding ([2]; Na+, Mg2+ (see Figure S2), adenine concentration varied)
1 | Nc1nc(N)c2[nH]cnc2n1 | yes | no | yes | yes | yes | yes | yes | yes | yes | yes | yes | – | –
2 | Nc1ncnc2[nH]cnc12 | – | – | – | – | – | – | – | – | – | – | – | yes | yes
